Test system: HMOX1 in Normal Human Lung Fibroblasts (NHLF)
Test: HMOX1 Protein Expression (immunostaining, fold induction or % positive cells over DMSO)
[1] = Homo sapiens, Fibroblast, read-out: Fold Induction of HMOX

Fold Induction of HMOX (HPP-A 0.019 uM, Bardoxolone Methyl 0 uM): 0.97 fold | Fold Induction of HMOX (HPP-A 0.019 uM, Bardoxolone Methyl 0.0024 uM): 3.24 fold | Fold Induction of HMOX (HPP-A 0.019 uM, Bardoxolone Methyl 0.0048 uM): 2.88 fold | Fold Induction of HMOX (HPP-A 0.019 uM, Bardoxolone Methyl 0.0097 uM): 7.14 fold | Fold Induction of HMOX (HPP-A 0.019 uM, Bardoxolone Methyl 0.039 uM): 15.87 fold | Fold Induction of HMOX (HPP-A 0.019 uM, Bardoxolone Methyl 0.078 uM): 22.27 fold | Fold Induction of HMOX (HPP-A 0.019 uM, Bardoxolone Methyl 0.156 uM): 22.90 fold | Fold Induction of HMOX (HPP-A 0.019 uM, Bardoxolone Methyl 0.312 uM): 17.20 fold | Fold Induction of HMOX (HPP-A 0.039 uM, Bardoxolone Methyl 0 uM): 1.09 fold | Fold Induction of HMOX (HPP-A 0.039 uM, Bardoxolone Methyl 0.0024 uM): 2.32 fold | Fold Induction of HMOX (HPP-A 0.039 uM, Bardoxolone Methyl 0.0048 uM): 3.04 fold | Fold Induction of HMOX (HPP-A 0.039 uM, Bardoxolone Methyl 0.0097 uM): 5.31 fold | Fold Induction of HMOX (HPP-A 0.039 uM, Bardoxolone Methyl 0.019 uM): 8.57 fold | Fold Induction of HMOX (HPP-A 0.039 uM, Bardoxolone Methyl 0.078 uM): 18.69 fold | Fold Induction of HMOX (HPP-A 0.039 uM, Bardoxolone Methyl 0.156 uM): 17.24 fold | Fold Induction of HMOX (HPP-A 0.039 uM, Bardoxolone Methyl 0.312 uM): 17.44 fold | Fold Induction of HMOX (HPP-A 0.078 uM, Bardoxolone Methyl 0 uM): 1.92 fold | Fold Induction of HMOX (HPP-A 0.078 uM, Bardoxolone Methyl 0.0024 uM): 4.25 fold | Fold Induction of HMOX (HPP-A 0.078 uM, Bardoxolone Methyl 0.0048 uM): 4.72 fold | Fold Induction of HMOX (HPP-A 0.078 uM, Bardoxolone Methyl 0.0097 uM): 8.43 fold | Fold Induction of HMOX (HPP-A 0.078 uM, Bardoxolone Methyl 0.019 uM): 13.21 fold | Fold Induction of HMOX (HPP-A 0.078 uM, Bardoxolone Methyl 0.039 uM): 17.81 fold | Fold Induction of HMOX (HPP-A 0.078 uM, Bardoxolone Methyl 0.156 uM): 17.88 fold | Fold Induction of HMOX (HPP-A 0.078 uM, Bardoxolone Methyl 0.312 uM): 15.33 fold | Fold Induction of HMOX (HPP-A 0.156 uM, Bardoxolone Methyl 0 uM): 3.46 fold | Fold Induction of HMOX (HPP-A 0.156 uM, Bardoxolone Methyl 0.0024 uM): 7.32 fold | Fold Induction of HMOX (HPP-A 0.156 uM, Bardoxolone Methyl 0.0048 uM): 8.04 fold | Fold Induction of HMOX (HPP-A 0.156 uM, Bardoxolone Methyl 0.0097 uM): 12.05 fold | Fold Induction of HMOX (HPP-A 0.156 uM, Bardoxolone Methyl 0.019 uM): 15.95 fold | Fold Induction of HMOX (HPP-A 0.156 uM, Bardoxolone Methyl 0.039 uM): 17.59 fold | Fold Induction of HMOX (HPP-A 0.156 uM, Bardoxolone Methyl 0.078 uM): 18.44 fold | Fold Induction of HMOX (HPP-A 0.156 uM, Bardoxolone Methyl 0.312 uM): 15.98 fold | Fold Induction of HMOX (HPP-A 0.312 uM, Bardoxolone Methyl 0 uM): 9.82 fold | Fold Induction of HMOX (HPP-A 0.312 uM, Bardoxolone Methyl 0.0024 uM): 11.67 fold | Fold Induction of HMOX (HPP-A 0.312 uM, Bardoxolone Methyl 0.0048 uM): 13.59 fold | Fold Induction of HMOX (HPP-A 0.312 uM, Bardoxolone Methyl 0.0097 uM): 16.45 fold | Fold Induction of HMOX (HPP-A 0.312 uM, Bardoxolone Methyl 0.019 uM): 17.74 fold | Fold Induction of HMOX (HPP-A 0.312 uM, Bardoxolone Methyl 0.039 uM): 19.61 fold | Fold Induction of HMOX (HPP-A 0.312 uM, Bardoxolone Methyl 0.078 uM): 21.13 fold | Fold Induction of HMOX (HPP-A 0.312 uM, Bardoxolone Methyl 0.156 uM): 19.21 fold | Fold Induction of HMOX (HPP-A 0.625 uM, Bardoxolone Methyl 0 uM): 15.00 fold | Fold Induction of HMOX (HPP-A 0.625 uM, Bardoxolone Methyl 0.0024 uM): 15.70 fold | Fold Induction of HMOX (HPP-A 0.625 uM, Bardoxolone Methyl 0.0048 uM): 17.10 fold | Fold Induction of HMOX (HPP-A 0.625 uM, Bardoxolone Methyl 0.0097 uM): 17.18 fold | Fold Induction of HMOX (HPP-A 0.625 uM, Bardoxolone Methyl 0.019 uM): 16.84 fold | Fold Induction of HMOX (HPP-A 0.625 uM, Bardoxolone Methyl 0.039 uM): 17.24 fold | Fold Induction of HMOX (HPP-A 0.625 uM, Bardoxolone Methyl 0.078 uM): 18.60 fold | Fold Induction of HMOX (HPP-A 0.625 uM, Bardoxolone Methyl 0.156 uM): 18.68 fold | Fold Induction of HMOX (HPP-A 0.625 uM, Bardoxolone Methyl 0.312 uM): 12.69 fold | Fold Induction of HMOX (HPP-A 1.25 uM, Bardoxolone Methyl 0 uM): 16.17 fold | Fold Induction of HMOX (HPP-A 1.25 uM, Bardoxolone Methyl 0.0024 uM): 16.12 fold | Fold Induction of HMOX (HPP-A 1.25 uM, Bardoxolone Methyl 0.0048 uM): 17.26 fold | Fold Induction of HMOX (HPP-A 1.25 uM, Bardoxolone Methyl 0.0097 uM): 16.49 fold | Fold Induction of HMOX (HPP-A 1.25 uM, Bardoxolone Methyl 0.019 uM): 15.93 fold | Fold Induction of HMOX (HPP-A 1.25 uM, Bardoxolone Methyl 0.039 uM): 15.63 fold | Fold Induction of HMOX (HPP-A 1.25 uM, Bardoxolone Methyl 0.078 uM): 15.15 fold | Fold Induction of HMOX (HPP-A 1.25 uM, Bardoxolone Methyl 0.156 uM): 16.65 fold | Fold Induction of HMOX (HPP-A 1.25 uM, Bardoxolone Methyl 0.312 uM): 10.53 fold | Fold Induction of HMOX (HPP-A 2.5 uM, Bardoxolone Methyl 0 uM): 17.48 fold | Fold Induction of HMOX (HPP-A 2.5 uM, Bardoxolone Methyl 0.0024 uM): 18.81 fold | Fold Induction of HMOX (HPP-A 2.5 uM, Bardoxolone Methyl 0.0048 uM): 19.48 fold | Fold Induction of HMOX (HPP-A 2.5 uM, Bardoxolone Methyl 0.0097 uM): 19.42 fold | Fold Induction of HMOX (HPP-A 2.5 uM, Bardoxolone Methyl 0.019 uM): 17.04 fold | Fold Induction of HMOX (HPP-A 2.5 uM, Bardoxolone Methyl 0.039 uM): 14.71 fold | Fold Induction of HMOX (HPP-A 2.5 uM, Bardoxolone Methyl 0.078 uM): 14.33 fold | Fold Induction of HMOX (HPP-A 2.5 uM, Bardoxolone Methyl 0.156 uM): 12.49 fold | Fold Induction of HMOX (HPP-A 5 uM, Bardoxolone Methyl 0 uM): 17.72 fold | maximum HMOX1 fold induction (HPP-A alone, concentrations greater than or equal to 2500 nM): 18 fold
SMILES: CNC(=O)c1ccc2c(c1)nc(Nc1nc3ccc(OC(F)(F)F)cc3s1)n2C [HPP-A, 1-Methyl-2-(6-trifluoromethoxy-benzothiazol-2-ylamino)-1H-benzoimidazole-5-carboxylic acid methyl amide]
increase HMOX1 (FIG. 1 bar A) (156 nM HPP-A alone): 3.5 fold | combined effect on HMOX induction (FIG. 1 bar C) (156 nM HPP-A combined with 9.7 nM CDDO-Me): greater than additive | fold induction at 0.019 µM [1]: 10 | fold induction at 0.039 µM [1]: 14.7 | fold induction at 0.078 µM [1]: 19.5 | fold induction at 0.156 µM [1]: 18.3 | fold induction at 0.312 µM [1]: 17.4
